Reference: patent US12599608B2, “Methods for treating cardiac valve disease” (The Regents of the University of California, priority 2018, dated 2026)

Key:
N1^+/− iPSC-derived ECs = assay: Network-based small molecule screen by targeted RNA-seq of 119 genes (KNN and hierarchical clustering); type: cell-based, human; conditions: initial screen, complete agglomeration method
From the text: TALEN-engineered isogenic human iPSCs that were either WT (wild-type) or N1^+/− were derived and characterized as detailed in Theodoris et al., Cell. 2015; 160:1072-1086. Isogenic iPSCs (induced pluripotent stem cells) were differentiated into ECs as previously described (Theodoris et al., 2015; White et al., Stem Cells. 2012; 31:92-103). On day 13 of the differentiation process, ECs were greater than 90% double-positive for CD31 (BD #558068) and CD144 (#FAB9381P) by FACS (fluorescence-activated cell sorting) analysis (FIGS. 9G-H). Small molecule experiments (described below) were conducted at day 15 of differentiation.
Starting on day 15 of differentiation, WT ECs were exposed to 10 μM DMSO (dimethyl sulfoxide) (n=80) while isogenic N1^+/− ECs were exposed to either 10 μM DMSO (n=80) or one of the small molecules from the LOPAC (1280 molecules) (Sigma LO1280) or Sheng Ding (315 molecules) chemical libraries. DMSO or small molecules were renewed with EC media (ScienCell #1001) changes on alternating days until the cells were ultimately collected for analysis on day 21. ECs were imaged using the IN Cell Analyzer on day 21 to evaluate morphology and cell death; wells with extensive cell death were eliminated from final analyses. For validation experiments, promising small molecules identified from the initial screen were applied to N1^+/− ECs in duplicate or triplicate along with controls of DMSO-exposed WT and N1^+/− ECs (n=4 each) using the same process as the initial screen described above.
ECs were lysed and RNA was isolated using the Qiagen RNeasy 96-well purification kit. RNA was diluted so that it was between the 10 pg-1 ng range accepted by the Cellular Research Precise targeted RNA-seq (RNA sequencing) system. Targeted RNA-seq libraries were prepared as per the Cellular Research Precise protocol (Rev 03092015), which includes both molecule and sample barcoding. The selected 119 target genes (see Table 1) included 3 low-expressing housekeeping genes for normalization (CHMP2A, C1orf43, REEP5) and either predicted central regulatory nodes or peripheral genes positioned within varied regions of the N1 network to permit identification of small molecules that affected central nodes as well as those that may have a synergistic effect in combination due to regulating different aspects of the network. Briefly, RNA was added to the Precise Encoding Plate containing indexed dT primer, dNTPs, and Spike-in mRNA controls and incubated at 65° C. for 3 minutes followed by cooling on ice. A master-mix of RT enzyme, RNase inhibitor, and buffer was then added to the samples, and they were incubated at 42° C. for 30 minutes followed by 80° C. for 5 minutes. Each plate of samples was combined into a single 2 ml tube and purified with AMPureXP beads. N1 PCR master-mix was added and samples were incubated for 94° C. for 2 minutes, followed by 15 cycles of 94° C. for 30 seconds, 55° C. for 3 minutes, and 68° C. for 1 minute, followed by 68° C. for 7 minutes. Samples were purified with AMPureXP beads and N2 PCR master-mix was added. Samples were incubated with the same thermal cycler program as above for 12 cycles. These final libraries were then purified with AMPureXP beads and analyzed for quality and concentration by Agilent Bioanalyzer and Illumina Library Quantification Kit (KAPA Biosystems), respectively. Libraries were normalized to equivalent concentration and pooled for paired-end 100 bp sequencing on an Illumina HiSeq 2500 instrument.
Sequencing data was analyzed using Cellular Research Precise Analysis Pipeline on the SevenBridges platform, which included analyzing sequencing quality with FASTQC, trimming adapters and filtering reads, demultiplexing based on sample barcodes, aligning reads with Bowtie 2, and determining the number of unique molecular indices per gene. Network inference was based on mutual information of gene expression from all DMSO- and small molecule-exposed samples as described in Margolin et al., BMC Bioinformatics. […]

N1^+/−/mTR^G2 mice = assay: In vivo small molecule treatment, staining of AV calcification with Alizarin Red; conditions: for reduction of the extent of calcification / reduction of the number of mice that developed calcification: compared to DMSO-treated mice, Alizarin red; for reduction of the extent of calcification: TG003 n=2, p=0.09, XCT790 single calcified mouse, not statistically significant; for reduction of the number of mice that developed calcification: TG003 p=0.09, XCT790 not statistically significant; for number of mice with calcified AVs by Alizarin red staining: four weeks of treatment from fourth postnatal week, DMSO 14 of 86; for AV calcification, overall conclusion: summary statement
Description: Protocols were reviewed/approved by UCSF Institutional Animal Care and Use Committee, San Francisco, CA. N1^+/− and mTR^het C57Bl6 mice (purchased from Jackson Labs: #002797 and #004132, respectively) were used to generate double mutant animals. Breedings were performed as previously described (Theodoris et al., The Journal of Clinical Investigation. 2017; 127:1683) to generate N1^+/−/[…] mice. Mice were treated with XCT790 (5 mg/kg/day), TG003 (0.3 mg/kg/day or 2 mg/kg/day, results pooled for analysis), Fmoc-leu (0.6 mg/kg/day), GSK837149A (4.5 mg/kg/day), biperiden (10 mg/kg/day), CB1954 (15 mg/kg/day), putrescine (0.26 mg/kg/day), naloxone (25 mg/kg/day), all by intraperitoneal injection, and RO4929097 (60 mg/kg/day) by oral gavage, or equivalent volume of solvent (DMSO or saline) for four weeks starting at the fourth postnatal week.
Hearts were fixed by perfusion fixation under anesthesia using isofluorane by ventricular KCl injection followed by PBS wash and fixation with 4% paraformaldehyde. Hearts were then incubated in 10% formalin overnight. The cardiac apex was cut parallel to the aortic root, and the heart tissue was then paraffin processed using standard protocols and embedded with the cut surface down. The resulting paraffin block was trimmed and angled to obtain a full three-leaflet view of the aortic root. The root was serially sectioned at […] intervals from the base of the aortic sinus and mounted on slides. The slides were then deparaffinized, and calcification was stained with 2% Alizarin Red (pH 4.1-4.3) as previously described (Theodoris et al., The Journal of Clinical Investigation. 2017; 127:1683).

SMILES | hierarchical clustering of transcriptional profile of treated N1-haploinsufficient ECs with WT ECs (N1^+/− iPSC-derived ECs) | reduction of the extent of calcification (N1^+/−/mTR^G2 mice) [%] | reduction of the number of mice that developed calcification (N1^+/−/mTR^G2 mice) [%] | number of mice with calcified AVs by Alizarin red staining (N1^+/−/mTR^G2 mice) | AV calcification, overall conclusion (N1^+/−/mTR^G2 mice)
CCN1/C(=C/C(C)=O)Sc2ccc(OC)cc21 [TG003, (Z)-1-(3-ethyl-5-methoxy-2,3-dihydrobenzothiazol-2-ylidene)propan-2-one] | cluster with WT ECs | 80 | 68 | 2 of 38 | showed a trend of reducing AV calcification
COc1cc(/C=C(\C#N)C(=O)Nc2nnc(C(F)(F)F)s2)ccc1OCc1ccc(C(F)(F)F)cc1C(F)(F)F [XCT790, 2E-3-(4-{[2,4-bis(trifluoromethyl)benzyl]oxy}-3-methoxyphenyl)-2-cyano-N-[5-(trifluoromethyl)-1,3,4-thiadiazol-2-yl]acrylamide] | cluster with WT ECs | 99 | 64 | 1 of 17 | showed a trend of reducing AV calcification
